44 compounds from patent US8507538B2, “Selective heterocyclic sphingosine 1 phosphate receptor modulators” (Receptos, Inc., priority 2009, dated 2013) can be followed below.

In this test the target is S1P1/EDG1 (Homo sapiens, UniProt P21453). Description: S1P1 CRE-bla CHOK1 reporter assay (inhibition of Forskolin induced cAMP). It counts as cell-based. As to conditions: agonist activity range, Table 2; read-out: S1P1 ACTIVITY
From the text: A mammalian expression plasmid containing S1P1/EDG1 cloned into pcDNA3.1 was purchased from Missouri S&T cDNA Resource Centre. The nucleotide and amino acid sequence of human S1P1/EDG1 are published in Hla and Maciag (J Biol Chem, 265(1990), 9308-9313). S1P1/pcDNA3.1 was transfected into the CRE-bla CHO K1 (Invitrogen) cell line, and stable single cell clones were selected using standard techniques. Expression of functional SIP1/EDG1 receptor was confirmed by cell surface FACS with a S1P1 antibody (R&D Systems, clone 218713) and S1P-mediated inhibition of Forskolin induced cAMP.
Cells were seeded into 384-well black wall/clear bottom plates at 10^4 cells/well/19.5 μl assay media (DMEM-phenol free, 0.5% charcoal/dextran stripped serum, 2 mM glutamine, 0.1 mM NEAA, 1 mM Na-Pyruvate, 25 mM Hepes) and incubated for 18 hrs at 37° C. in 5% CO2. Dose response curves (10-point) were generated in 10 mM Hepes, 0.1% Pluronic F127, in the presence of Forskolin. Cells were treated with 0.5 μl compound in the presence of 2 μM Forskolin for 4 hrs at 37° C. The FRET-based β-lactamase fluorescent substrate (LiveBLAzer™ FRET B/G Loading Kit CC4-AM; Invitrogen) was prepared according to manufacturer's directions, and incubated with cells for 2 hrs at room temperature. Plates were read at Ex:410/Em:458 and Ex:410/Em:522, and the response ratio determined. Data was analyzed by non-linear regression to determine the EC50 for inhibition of Forskolin induced cAMP.

Where a name gives a salt, the structure may show the parent alone.

Chain of S1P1/EDG1 (P21453 whole entry): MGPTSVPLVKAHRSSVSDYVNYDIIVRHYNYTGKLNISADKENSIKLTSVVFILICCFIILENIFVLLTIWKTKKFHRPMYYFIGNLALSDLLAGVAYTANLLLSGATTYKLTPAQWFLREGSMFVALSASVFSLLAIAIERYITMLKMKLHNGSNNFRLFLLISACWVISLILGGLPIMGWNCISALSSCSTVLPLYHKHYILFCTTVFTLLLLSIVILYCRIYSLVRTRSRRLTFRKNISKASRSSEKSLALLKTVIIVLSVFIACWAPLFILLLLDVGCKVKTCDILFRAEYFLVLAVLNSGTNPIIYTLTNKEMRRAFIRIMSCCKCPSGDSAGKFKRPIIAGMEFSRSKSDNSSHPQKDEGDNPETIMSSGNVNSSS

`CC(C)Oc1ccc(-c2ncc(-c3cccc4c3CC[C@@H]4NC(=O)N3CC[C@@H](O)C3)s2)cc1C#N` [Compound 174]: the EC50 is 0.05 to 0.5 nM. As to `CC(=O)N[C@H]1CCc2c(-c3cnc(-c4ccc(OC(C)C)c(C#N)c4)s3)cccc21` [Compound 88], the EC50 is 0.5 to 5 nM. As for `CC(C)Oc1ccc(-c2ncc(-c3cccc4c3CC[C@@H]4NCC(=O)N3CCNCC3)s2)cc1C#N` [Compound 107], the EC50 was 0.5 to 5 nM.

Turning to `CC(C)Oc1ccc(-c2nnc(-c3cccc4c3CC[C@@H]4NS(=O)(=O)CC(N)=O)s2)cc1C#N` [Compound 44], the EC50 was under 0.05 nM. The value for `COCCS(=O)(=O)N[C@H]1CCc2c(-c3cnc(-c4ccc(OC(C)C)c(C#N)c4)s3)cccc21` [Compound 116] was 0.5 to 5 nM; that for `CC(C)Oc1ccc(-c2ncc(-c3cccc4c3CC[C@@H]4NCC(=O)N3CC[C@H](O)C3)s2)cc1C#N` [Compound 105] was over 5 nM. In the case of `CC(C)Oc1ccc(-c2ncc(-c3cccc4c3CC[C@@H]4NCC(=O)N3CCNCC3)s2)cc1C#N` [Compound 108] it was over 5 nM. In the case of `CC(C)Oc1ccc(-c2ncc(-c3cccc4c3CC[C@@H]4NC(=O)CN(C)C)s2)cc1C#N` [Compound 81] it was 0.5 to 5 nM; in that of `CC(C)Oc1ccc(-c2ncc(-c3cccc4c3CCC4N3CCOCC3)s2)cc1C#N` (centres unmarked) [Compound 214], 0.5 to 5 nM.

Regarding `CC(C)Oc1ccc(-c2ncc(-c3cccc4c3CC[C@@H]4NS(=O)(=O)CCN3CCC(CC(=O)O)CC3)s2)cc1C#N` [Compound 148], the EC50 was in the range of 0.5 to 5 nM. The value for `CC(C)Oc1ccc(-c2ncc(-c3cccc4c3CC[C@@H]4NC(=O)N(C)C)s2)cc1C#N` [Compound 168] was 0.05 to 0.5 nM. The value for `CC(C)Oc1ccc(-c2ncc(-c3cccc4c3CC[C@@H]4NS(=O)(=O)CCN3CC[C@H](N)C3)s2)cc1C#N` [Compound 135] was over 5 nM; that for `COC(=O)CS(=O)(=O)N[C@H]1CCc2c(-c3cnc(-c4ccc(OC(C)C)c(C#N)c4)s3)cccc21` [Compound 155, (S)-methyl 2-(N-(4-(2-(3-cyano-4-isopropoxyphenyl)thiazol-5-yl)-2,3-dihydro-1H-inden-1-yl)sulfamoyl)acetate] was 0.5 to 5 nM. As to `CC(C)Oc1ccc(-c2cc(-c3cccc4c3CCC4O)cs2)cc1C#N` (centres unmarked) [Compound 226, 5-(4-(1-hydroxy-2,3-dihydro-1H-inden-4-yl)thiophen-2-yl)-2-isopropoxybenzonitrile], the EC50 was 0.5 to 5 nM.

Take `COCCN[C@H]1CCc2c(-c3cnc(-c4ccc(OC(C)C)c(C#N)c4)s3)cccc21` [Compound 93]: the EC50 lay in the range of 0.5 to 5 nM.

In the case of `CC(C)Oc1ccc(-c2ncc(-c3cccc4c3CC[C@@H]4NC(=O)N(C)C)s2)cc1C#N` [Compound 169], the EC50 is 0.5 to 5 nM. Turning to `CC(C)Oc1ccc(-c2nnc(-c3cccc4c3CCC4NCCO)s2)cc1C#N` (stereo in doubt) [Compound 17, (R)-5-(5-(1-((2-hydroxyethyl)amino)-2,3-dihydro-1H-inden-4-yl)-1,3,4-thiadiazol-2-yl)-2-isopropoxybenzonitrile], the EC50 was in the range of 0.05 to 0.5 nM.

For the compound `CC(C)Oc1ccc(-c2ncc(-c3cccc4c3CC[C@@H]4NC(=O)N3CC(O)C3)s2)cc1C#N` [Compound 171], the EC50 lay within 0.05 to 0.5 nM.

Consider `CC(C)Oc1ccc(-c2nnc(-c3cccc4c3CC[C@@H]4NCC(=O)N3CCCC3)s2)cc1C#N` [Compound 23], for which the EC50 lay in the range of 0.5 to 5 nM.

With `COCC(=O)N[C@H]1CCc2c(-c3cnc(-c4ccc(OC(C)C)c(C#N)c4)s3)cccc21` [Compound 76, (S)-N-(4-(2-(3-cyano-4-isopropoxyphenyl)thiazol-5-yl)-2,3-dihydro-1H-inden-1-yl)-2-methoxyacetamide], the EC50 lay in the range of 0.5 to 5 nM.

As to `CC(C)Oc1ccc(-c2nnc(-c3cccc4c3CCC4N)s2)cc1C#N` (stereo in doubt) [Compound 5, (R)-5-(5-(1-amino-2,3-dihydro-1H-inden-4-yl)-1,3,4-thiadiazol-2-yl) -2 isopropoxybenzonitrile hydrochloride], the EC50 was 0.5 to 5 nM. In the case of `COC(=O)CN[C@H]1CCc2c(-c3cnc(-c4ccc(OC(C)C)c(C#N)c4)s3)cccc21` [Compound 99, (S)-methyl 2-((4-(2-(3-cyano-4-isopropoxyphenyl)thiazol-5-yl)-2,3-dihydro-1H-inden-1-yl)amino)acetate] it was 0.5 to 5 nM. As to `CC(C)Oc1ccc(-c2ncc(-c3cccc4c3CC[C@@H]4NS(=O)(=O)CCN3CCCC(O)C3)s2)cc1C#N` (stereo in doubt) [Compound 141, N-((S)-4-(2-(3-cyano-4-isopropoxyphenyl)thiazol-5-yl)-2,3-dihydro-1H-inden-1-yl)-2-((R)-3-hydroxypiperidin-1-yl)ethanesulfonamide], the EC50 was in the range of 0.5 to 5 nM. In the case of `CC(C)Oc1ccc(-c2ncc(-c3cccc4c3CC[C@@H]4NC(=O)N3CCNCC3)s2)cc1C#N` [Compound 189] it was over 5 nM; in that of `CC(C)Oc1ccc(-c2ncc(-c3cccc4c3CC[C@@H]4NC(=O)N3CCCC3)s2)cc1C#N` [Compound 173, (S)-N-(4-(2-(3-cyano-4-isopropoxyphenyl)thiazol-5-yl)-2,3-dihydro-1H-inden-1-yl)pyrrolidine-1-carboxamide], 0.5 to 5 nM. On to `CC(C)Oc1ccc(-c2ncc(-c3cccc4c3CCC4NS(=O)(=O)CCO)s2)cc1C#N` (stereo in doubt) [Compound 164, (R)-N-(4-(2-(3-cyano-4-isopropoxyphenyl)thiazol-5-yl)-2,3-dihydro-1H-inden-1-yl)-2-hydroxyethanesulfonamide], for which the EC50 was 0.05 to 0.5 nM. In the case of `CC(C)Oc1ccc(-c2ncc(-c3cccc4c3CC[C@@H]4N3CCC3)s2)cc1C#N` [Compound 206] it was 0.05 to 0.5 nM.

Regarding `CC(C)Oc1ccc(-c2nnc(-c3cccc4c3CC[C@@H]4NCC(=O)N(C)C)s2)cc1C#N` [Compound 21, (S)-2-((4-(5-(3-cyano-4-isopropoxyphenyl)-1,3,4-thiadiazol-2-yl)-2,3-dihydro-1H-inden-1-yl)amino)-N,N-dimethylacetamide hydrochloride], the EC50 lay in the range of 0.5 to 5 nM. In the case of `CC(C)Oc1ccc(-c2nnc(-c3cccc4c3CCC4NS(C)(=O)=O)s2)cc1C#N` (stereo in doubt) [Compound 34, (R)-N-(4-(5-(3-cyano-4-isopropoxyphenyl)-1,3,4-thiadiazol-2-yl)-2,3-dihydro-1H-inden-1-yl)methanesulfonamide] it was 0.05 to 0.5 nM; in that of `CC(C)Oc1ccc(-c2nnc(-c3cccc4c3CC[C@@H]4NCC(=O)N3CCOCC3)s2)cc1C#N` [Compound 25], 0.05 to 0.5 nM.

Turning to `CC(C)Oc1ccc(-c2ncc(-c3cccc4c3CC[C@@H]4NS(=O)(=O)CCN3CCC(CO)CC3)s2)cc1C#N` [Compound 149], the EC50 lay in the range of 0.5 to 5 nM. With `COCCS(=O)(=O)N[C@H]1CCc2c(-c3nnc(-c4ccc(OC(C)C)c(C#N)c4)s3)cccc21` [Compound 35], the EC50 was in the range of 0.05 to 0.5 nM.

`CC(C)Oc1ccc(-c2ncc(-c3cccc4c3CC[C@@H]4NC(=O)N3CC[C@H](N)C3)s2)cc1C#N` [Compound 179]: the EC50 is 0.5 to 5 nM.

On to `COC(=O)N[C@H]1CCc2c(-c3nnc(-c4ccc(OC(C)C)c(C#N)c4)s3)cccc21` [Compound 16, (S)-methyl(4-(5-(3-cyano-4-isopropoxyphenyl)-1,3,4-thiadiazol-2-yl)-2,3-dihydro-1H-inden-1-yl)carbamate], for which the EC50 was 0.5 to 5 nM. Take `CC(C)Oc1ccc(-c2ncc(-c3cccc4c3CC[C@@H]4NS(=O)(=O)CCN3CCC3)s2)cc1C#N` [Compound 127]: the EC50 lay within 0.5 to 5 nM. As to `CC(C)Oc1ccc(-c2ncc(-c3cccc4c3CCC4NC3CCOCC3)s2)cc1C#N` (centres unmarked) [Compound 217], the EC50 was over 5 nM.

As for `CC(C)Oc1ccc(-c2nnc(-c3cccc4c3CC[C@@H]4NC(=O)N3CC[C@H](O)C3)s2)cc1C#N` [Compound 55], the EC50 was in the range of 0.5 to 5 nM.

Take `CC(C)Oc1ccc(-c2ncc(-c3cccc4c3CCC4N3CC[C@@H](O)C3)s2)cc1C#N` (some centres unmarked) [Compound 209]: the EC50 was 0.5 to 5 nM. In the case of `CC(C)Oc1ccc(-c2nnc(-c3cccc4c3CCC4NCC(=O)O)s2)cc1C#N` (stereo in doubt) [Compound 27, (R)-2-((4-(5-(3-cyano-4-isopropoxyphenyl)-1,3,4-thiadiazol-2-yl)-2,3-dihydro-1H-inden-1-yl)amino)acetic acid] it was 0.05 to 0.5 nM. In the case of `CC(C)Oc1ccc(-c2ncc(-c3cccc4c3CCC4N3CCN(C)CC3)s2)cc1C#N` (centres unmarked) [Compound 216] it was 0.5 to 5 nM. In the case of `CC(C)Oc1ccc(-c2ncc(-c3cccc4c3CC[C@@H]4NC(=O)N3CC[C@@H](O)C3)s2)cc1C#N` [Compound 176] it was 0.5 to 5 nM.

Regarding `CC(C)Oc1ccc(-c2ncc(-c3cccc4c3CC[C@@H]4NCC(=O)N(C)C)s2)cc1C#N` [Compound 98], the EC50 was 0.5 to 5 nM. As to `COC(=O)N[C@H]1CCc2c(-c3nnc(-c4ccc(OC(C)C)c(C#N)c4)s3)cccc21` [Compound 68], the EC50 fell in the range of 0.05 to 0.5 nM. The value for `CC(C)Oc1ccc(-c2ncc(-c3cccc4c3CC[C@@H]4NS(=O)(=O)CCN3CCCC3)s2)cc1C#N` [Compound 130] was 0.5 to 5 nM.
